# According to US12447167B2, “GM-CSF-producing t-cell control agent and Th1/Th2 immune balance regulator” (National Center of Neurology and Psychiatry, priority 2014, dated 2025):
# Tested on: GM-CSF
# Experiment: GM-CSF expression level of sorted CD4-positive memory T-cells of MS patients (ELISA of culture supernatant)
# Type: in vivo, human
# Conditions: 0.3 mg single oral
# Description: A single dose of compound 31, which is a synthetic glycolipid of the present invention, described in the first aspect was orally administered to each of 2 MS patients (subjects) shown in Table 2 above after obtainment of informed consent. The dose was set to 0.3 mg per person.
# Subsequently, T-cell subfractions were prepared from the peripheral blood of each subject by using the density gradient centrifugation method. First, a total of 20 mL of blood was collected from the vein of each subject 24 hours (1st day), 48 hours (2nd day), 72 hours (3rd day), 168 hours (7th day), and 192 hours (8th day) after the administration of compound 31 by using two 10-mL heparin sodium-containing vacuum blood collection tubes. For a control, 20 mL of blood was similarly collected from the vein of each subject one day before the administration of compound 31.
# The collected PBMCs were stained with antibodies by the following method. First, 10 μL of a solution consisting of 20 μL of MACS buffer, 0.25 μL of APC-Cy7-anti-CD3 antibody (BioLegend, Inc.), 1 μL of PB-anti-CD4 antibody (BioLegend, Inc.), 1 μL of PerCP-Cy5.5-anti-CD45RA antibody (BioLegend, Inc.), and 1 μL of PC7-anti-CD56 antibody (Beckman Coulter, Inc.) was added to 6×10^6 cells of PBMCs, thoroughly mixed by vortexing, and then left on ice for 20 minutes. CD56 is a detection marker of cells having NK activity, and CD3^−CD56^− cells indicate being antigen-presenting cells (APCs). […]
# mCD4T and APC obtained by the sorting were each suspended in a medium consisting of 500 mL of RPMI1640 (GIBCO/Thermo Fisher Scientific Inc.), 5 mL of glutamine (200 mM, Wako Pure Chemical Industries, Ltd.), 5 mL of Pen/strep (10,000 U/mL, GIBCO/Thermo Fisher Scientific Inc.), 0.5 mL of 2-mercaptoethanol (GIBCO/Thermo Fisher Scientific Inc.), and 50 mL of 10% (v/v) Cellect FETAL BOVINE SERUM (MP Biomedicals, LLC), and the number of cells was measured. […]
# After the culture, a culture supernatant was collected, and IFN-γ, IL-4, IL-17, and GM-CSF were measured by the ELISA method. […]
smiles,measurement,setting,value
"CCCCCCCCCCCCCCCCCCCCCCCC(=O)NC(COC1OC(CO)C(O)C(O)C1O)[C@H](O)C(O)CCCCC (stereo in doubt) [compound 31, (2S,3S,4R)-1-O-(α-D-galactosyl)-2-(N-tetracosanoylamino)-1,3,4-nonanetriol]",GM-CSF expression level,"day 8, MBP stimulation, day −1 value 153.15",50.81
same,GM-CSF expression level,"day 8, OVA stimulation, day −1 value 224.87",168.45
same,change of expression level of GM-CSF,day8 vs day-1,decreased
